In ChEMBL document CHEMBL5303304, “EUbOPEN Chemogenomics Library - IncuCyte” (2023):
Where “and” joins values, the source holds several entries; their conditions need not be identical. Equal entries are not always repeated.

Key:
Format in all cases: toxicity, cell-based
Fibroblast = test: Incucyte cell viability with human fibroblast; conditions: 10 µM, compound concentration 10 uM
U2OS = test: Incucyte cell viability with U2OS; conditions: human, 10 µM, compound concentration 10 uM
HEK-293T = test: Incucyte cell viability with HEK293T; conditions: human, 10 µM, compound concentration 10 uM
Further: unitless GR value; below 1 slowed growth and below 0 cell loss.

SMILES	Growth Rate (Fibroblast; 6 h, replicate number 1)	Growth Rate (Fibroblast; 12 h, replicate number 2)	Growth Rate (Fibroblast; 18 h, replicate number 2)	Growth Rate (Fibroblast; 24 h, replicate number 1)	Growth Rate (Fibroblast; 24 h, replicate number 2)	Growth Rate (U2OS; 6 h, replicate number 1)	Growth Rate (U2OS; 6 h, replicate number 2)	Growth Rate (U2OS; 12 h, replicate number 1)	Growth Rate (U2OS; 24 h, replicate number 1)	Growth Rate (HEK-293T; 0 h, replicate number 2)	Growth Rate (HEK-293T; 18 h, replicate number 2)	Growth Rate (Fibroblast; 0 h, replicate number 1)	Growth Rate (U2OS; 0 h, replicate number 1)	Growth Rate (U2OS; 12 h, replicate number 2)	Growth Rate (U2OS; 18 h, replicate number 1)	Growth Rate (U2OS; 18 h, replicate number 2)	Growth Rate (U2OS; 24 h, replicate number 2)	Growth Rate (HEK-293T; 6 h, replicate number 1)	Growth Rate (HEK-293T; 24 h, replicate number 1)	Growth Rate (HEK-293T; 24 h, replicate number 2)	also measured
Cc1nnc2n1-c1sc3c(c1C(c1ccccc1Cl)=NC2)CC(C(=O)N1CCOCC1)C3 (configuration not stated) [BEPAFANT]	0.34	0.71	0.79	0.87	0.92	0.52	0.91	0.9	0.89	0	0.99	–	–	–	–	–	–	–	–	–	Growth Rate (Fibroblast; 0 h, replicate number 2): -0.12; Growth Rate (Fibroblast; 18 h, replicate number 1): 0.77; Growth Rate (HEK-293T; 0 h, replicate number 1): 0.58
CNCc1ccc(-c2cc(-c3nc(-c4ccc(S(=O)(=O)C(C)C)cc4)cnc3N)on2)cc1 [BERZOSERTIB]	–	0.24	-0.14	-0.05	-0.29	–	–	-0.83	0.31	-0.99	-0.38	-1	-1	0.45	0.15	0.23	0.19	-0.67	-0.24	-0.26	Growth Rate (Fibroblast; 18 h, replicate number 1): 0.32; Growth Rate (HEK-293T; 6 h, replicate number 2): -0.05; Growth Rate (HEK-293T; 12 h, replicate number 1): -0.49; Growth Rate (HEK-293T; 12 h, replicate number 2): -0.51; Growth Rate (HEK-293T; 18 h, replicate number 1): -0.3
COC(=O)c1cc2c(cn1)[nH]c1ccccc12 [BETA-CCM]	0.4	0.65	0.98	–	0.9	–	0.6	0.72	0.98	–	0.78	0.3	–	0.95	0.85	1	0.97	0.67	–	0.86	Growth Rate (Fibroblast; 6 h, replicate number 2): -0.82; Growth Rate (Fibroblast; 12 h, replicate number 1): -1; Growth Rate (U2OS; 0 h, replicate number 2): -0.72; Growth Rate (HEK-293T; 12 h, replicate number 2): 0.64
CC(=O)N1CCC(c2ccc(C(=O)NC3=NCCN3)cc2C(F)(F)F)CC1 [BI 0054]	–	0.87	0.82	–	0.88	0.82	–	0.97	–	-0.32	–	-1	0.95	–	–	0.92	–	0.29	0.81	–	Growth Rate (HEK-293T; 12 h, replicate number 1): 0.6; Growth Rate (HEK-293T; 18 h, replicate number 1): 0.87
COc1ccc2c(O[C@@H]3C[C@H]4C(=O)N[C@]5(C(=O)O)CC5/C=C\CCCCC[C@H](NC(=O)OC5CCCC5)C(=O)N4C3)cc(-c3csc(NC(=O)C(C)C)n3)nc2c1C (some centres not stated) [BI 1230]	–	-0.04 and -0.05	–	0.07 and 0.17	–	0.71 and 0.63	0.86	–	0.77 and 0.99	–	–	–	0.55	0.86	0.65 and 0.86	0.98	0.95	0.86 and 0.76	0.7	0.34 and 0.67	Growth Rate (Fibroblast; 0 h, replicate number 2): 0.45; Growth Rate (Fibroblast; 12 h, replicate number 1): 0.15 and 0.2; Growth Rate (HEK-293T; 12 h, replicate number 1): 0.92 and 0.77; Growth Rate (HEK-293T; 18 h, replicate number 1): 0.86 and 0.65
O=C(N[C@H]1CCCCC/C=C\C2C[C@@]2(C(=O)O)NC(=O)[C@@H]2C[C@@H](Oc3ccncc3)CN2C1=O)OC1CCCC1 (some centres not stated) [BI 1675]	0.23	–	0.91	0.99	–	0.77	–	0.68	0.89	-0.95	–	–	0.43	0.99	0.77	–	–	–	0.94	0.89	Growth Rate (Fibroblast; 6 h, replicate number 2): 0.39; Growth Rate (Fibroblast; 12 h, replicate number 1): 0.84; Growth Rate (HEK-293T; 0 h, replicate number 1): -0.15; Growth Rate (HEK-293T; 6 h, replicate number 2): 0.64; Growth Rate (HEK-293T; 12 h, replicate number 2): 0.89
